Tested on: 4T1 cells
Format: cell-based, murine
Protocol: 4T1 murine breast carcinoma cells were purchased from American Type Culture Collection (Manassas, VA, USA) and maintained in RPMI-1640 supplemented with 10% fetal bovine serum (FBS, Gibco, Grand Island, NY, USA). To produce breast cancer models, 4-week-old female BALB/c nude mice were purchased from the Shanghai Laboratory Animal Center at the Chinese Academy of Sciences (Shanghai, China) and subcutaneously injected in the left lateral thigh with 1 × 10^6 tumor cells suspended in 100 μL of PBS. All animal experiments were performed according to protocols established by the Ethics Committee of Shanghai General Hospital. To assess potential cytotoxic effects of LyP-1 or ARAL, cell proliferation assays were conducted with CCK-8 (Dojindo Technologies, Kumamoto, Japan). 4T1 cells (1 × 10^4 per well) were plated on 96-well plates in the RPMI-1640 medium with 10% FBS. After 24 h, the medium was replaced by 100 μL of fresh containing different concentrations of LyP-1 or ARAL (0.1, 1, 5, 10, 20, or 50 μM) for another 24 h. Then, 10 μL CCK-8 was added for 2 h. Absorbance was measured at 450 nm using a Varioskan Flash multimode microplate reader (Thermo Fisher Scientific, Waltham, MA, USA).

For C[C@@H](O)[C@@H]1NC(=O)[C@H](CCCNC(=N)N)NC(=O)[C@H](CCCCN)NC(=O)[C@H](CC(N)=O)NC(=O)CNC(=O)[C@@H](N)CSSC[C@@H](C(=O)O)NC(=O)CNC(=O)[C@H](CCCNC(=N)N)NC1=O [LyP-1], the “cell viability compared with that for 0.1–10 μM” value was “slightly but not significantly lower”.
